22 molecules from ChEMBL document CHEMBL1275371, “Synthesis, biological evaluation, and molecular docking studies of 2-chloropyridine derivatives possessing 1,3,4-oxadiazole moiety as potential antitumor agents” (Bioorg Med Chem, 2010) can be followed below.

SMILES strings stand for the structures. Values after ≈ are worked out from the molar mass of the structure shown.

In the first test the target is Telomerase reverse transcriptase (Homo sapiens, UniProt O14746). Nature of the test: Inhibition of telomerase in human SGC7901 cells by TRAP assay. It counts as cell-based, SGC-7901.
Sequence of Telomerase reverse transcriptase (O14746 whole entry): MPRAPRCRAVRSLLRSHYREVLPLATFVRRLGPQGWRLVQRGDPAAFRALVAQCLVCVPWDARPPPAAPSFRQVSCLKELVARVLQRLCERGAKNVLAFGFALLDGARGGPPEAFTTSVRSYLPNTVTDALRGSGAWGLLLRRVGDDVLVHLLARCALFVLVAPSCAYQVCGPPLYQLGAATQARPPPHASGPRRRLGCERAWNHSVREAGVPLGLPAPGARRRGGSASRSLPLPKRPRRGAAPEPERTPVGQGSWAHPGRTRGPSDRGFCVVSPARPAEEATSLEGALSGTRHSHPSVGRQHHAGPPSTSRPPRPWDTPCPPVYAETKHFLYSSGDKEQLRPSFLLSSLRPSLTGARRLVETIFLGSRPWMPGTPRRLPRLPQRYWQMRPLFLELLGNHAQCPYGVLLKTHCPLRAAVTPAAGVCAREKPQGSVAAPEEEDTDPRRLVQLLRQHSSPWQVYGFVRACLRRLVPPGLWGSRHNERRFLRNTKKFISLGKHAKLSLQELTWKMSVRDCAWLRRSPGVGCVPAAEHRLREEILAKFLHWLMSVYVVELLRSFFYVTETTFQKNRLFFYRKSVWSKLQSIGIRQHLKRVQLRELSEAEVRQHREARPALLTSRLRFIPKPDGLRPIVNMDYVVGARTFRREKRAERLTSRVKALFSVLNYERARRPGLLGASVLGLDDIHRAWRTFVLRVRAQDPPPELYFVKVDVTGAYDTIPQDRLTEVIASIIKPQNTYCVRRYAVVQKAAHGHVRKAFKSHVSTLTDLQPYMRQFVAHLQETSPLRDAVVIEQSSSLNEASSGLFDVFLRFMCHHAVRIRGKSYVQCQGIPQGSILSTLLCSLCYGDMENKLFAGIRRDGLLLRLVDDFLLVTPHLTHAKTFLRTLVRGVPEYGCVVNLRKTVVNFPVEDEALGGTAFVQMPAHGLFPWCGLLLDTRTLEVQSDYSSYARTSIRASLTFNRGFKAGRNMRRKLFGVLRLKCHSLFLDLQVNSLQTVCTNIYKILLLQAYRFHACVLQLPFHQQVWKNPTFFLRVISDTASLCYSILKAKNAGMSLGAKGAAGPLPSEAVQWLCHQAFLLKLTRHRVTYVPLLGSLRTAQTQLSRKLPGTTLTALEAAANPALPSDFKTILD
Details: not given
As usually defined, the IC50 is the midpoint of a concentration-inhibition curve. High values mean weaker potency, low ones greater potency. `Clc1ccc(CSc2nnc(-c3cccc4ccccc34)o2)cn1` showed an IC50 of 4.2 µM. Molecule `COc1ccc(-c2nnc(SCc3ccc(Cl)nc3)o2)c(O)c1` yielded a half-inhibitory concentration (IC50) of 2.3 µM.

The next test relates to SGC-7901. Nature of the test: Antiproliferative activity against human SGC7901 cells after 48 hrs by MTT assay. It counts as functional, cell-based. The conditions noted are these: SGC-7901, 48 h.
In turn, `CCOc1ccccc1-c1nnc(SCc2ccc(Cl)nc2)o1` returned an IC50 of 10.3 µg/mL (≈ 29.6 µM). As to `CC(C)c1ccc(-c2nnc(SCc3ccc(Cl)nc3)o2)cc1`, half-maximal inhibition (IC50) was put at 4.32 µg/mL (≈ 12.5 µM). With `Oc1ccc(-c2nnc(SCc3ccc(Cl)nc3)o2)cc1`, the IC50 is above 20 µg/mL. For `Nc1ccc(-c2nnc(SCc3ccc(Cl)nc3)o2)cc1`, the half-inhibitory concentration (IC50) worked out at 8.48 µg/mL (≈ 26.6 µM).

Take `Clc1ccc(CSc2nnc(-c3cccc4ccccc34)o2)cn1`: it took 2.56 µg/mL (≈ 7.24 µM) to reach half-maximal inhibition (IC50). `COc1ccccc1-c1nnc(SCc2ccc(Cl)nc2)o1` showed an IC50 of 8.2 µg/mL (≈ 24.6 µM).

Consider `Fc1ccccc1-c1nnc(SCc2ccc(Cl)nc2)o1`, for which the midpoint of inhibition, the IC50, lay at 9.12 µg/mL (≈ 28.3 µM).

With `CCOc1ccc(-c2nnc(SCc3ccc(Cl)nc3)o2)cc1`, the IC50 amounted to 4.97 µg/mL (≈ 14.3 µM).

Regarding `Fc1ccc(-c2nnc(SCc3ccc(Cl)nc3)o2)cc1`, the IC50 was determined as 3.67 µg/mL (≈ 11.4 µM). The same measure, in the same setting: next, `COc1cc(-c2nnc(SCc3ccc(Cl)nc3)o2)cc(OC)c1OC`: 10.2 µg/mL (≈ 25.9 µM).

`Clc1ccc(CSc2nnc(-c3ccccc3Cl)o2)cn1` had an IC50 of 13.4 µg/mL (≈ 39.8 µM). Turning to `COc1ccc(-c2nnc(SCc3ccc(Cl)nc3)o2)c(O)c1`, half-maximal inhibition (IC50) required 1.61 µg/mL (≈ 4.6 µM). As to `O=c1[nH]cc(F)c(=O)[nH]1` [FLUOROURACIL], the IC50 is 7.36 µg/mL (≈ 56.6 µM). In turn, `Clc1ccc(CSc2nnc(-c3cccs3)o2)cn1` showed an IC50 of 15.1 µg/mL (≈ 48.7 µM).

In turn, `COc1ccc(-c2nnc(SCc3ccc(Cl)nc3)o2)cc1OC` yielded a half-inhibitory concentration (IC50) of 4.48 µg/mL (≈ 12.3 µM). On the same count and under the same terms, with `COc1ccc(-c2nnc(SCc3ccc(Cl)nc3)o2)cc1` the figure was 3.5 µg/mL (≈ 10.5 µM).

With `Cc1ccc(-c2nnc(SCc3ccc(Cl)nc3)o2)cc1`, inhibition was half-maximal at 3.62 µg/mL (≈ 11.4 µM) (IC50).

`Clc1ccc(-c2nnc(SCc3ccc(Cl)nc3)o2)cc1` returned an IC50 of 8.62 µg/mL (≈ 25.5 µM). `CN(C)c1ccc(-c2nnc(SCc3ccc(Cl)nc3)o2)cc1` had an IC50 of 8.9 µg/mL (≈ 25.7 µM). In turn, `Cc1ccccc1-c1nnc(SCc2ccc(Cl)nc2)o1` came in with an IC50 of 8.51 µg/mL (≈ 26.8 µM). `Clc1ccc(CSc2nnc(-c3ccco3)o2)cn1` showed an IC50 of 14.3 µg/mL (≈ 48.7 µM). The molecule `Clc1ccc(CSc2nnc(-c3ccccn3)o2)cn1` came in with an IC50 of 12.6 µg/mL (≈ 41.3 µM).
